These are literature values, as cited in patent publication US20250231185A1, “Coronavirus T Cell Epitopes, Megapools and Uses Thereof” (La Jolla Institute for Immunology, priority 2021, published 2025).

In the first data set the test system is CD8+ T cells. The note with it: CD8R (D) megapool epitopes; dominant = recognized by 3 or more donors/different studies; cited from earlier work.
As to 1710 (FSKQLQQSM) [compound 1710], the Dominant entry was “Yes (more dominant epitopes are defined by being recognized by 3 or more donors/different studies)”.
1690 (GTGPEAGLPY) [compound 1690]: the Dominant entry was “Yes (more dominant epitopes are defined by being recognized by 3 or more donors/different studies)”.
With 1780 (FLNGSCGSV) [compound 1780], the Dominant result is listed as “Yes (more dominant epitopes are defined by being recognized by 3 or more donors/different studies)”.
Consider 1814 (VFITLCFTLK) [compound 1814], for which the Dominant result is listed as “Yes (more dominant epitopes are defined by being recognized by 3 or more donors/different studies)”.
For the substance 1773 (FLPRVFSAV) [compound 1773], the Dominant result is recorded as “Yes (more dominant epitopes are defined by being recognized by 3 or more donors/different studies)”.
1774 (FSAVGNICY) [compound 1774]: the Dominant result is on record as “Yes (more dominant epitopes are defined by being recognized by 3 or more donors/different studies)”.
As for 1783 (FLNRFTTTL) [compound 1783], the Dominant result is “Yes (more dominant epitopes are defined by being recognized by 3 or more donors/different studies)”.
Consider 1742 (TYACWHHSI) [compound 1742], for which the Dominant entry is listed as “Yes (more dominant epitopes are defined by being recognized by 3 or more donors/different studies)”.
With 1704 (MEVTPSGTW) [compound 1704], the Dominant entry is “Yes (more dominant epitopes are defined by being recognized by 3 or more donors/different studies)”.
Turning to 1692 (NPANNAAIVL) [compound 1692], the Dominant result is on record as “Yes (more dominant epitopes are defined by being recognized by 3 or more donors/different studies)”.
Regarding 1804 (ALSKGVHFV) [compound 1804], the Dominant entry is given as “Yes (more dominant epitopes are defined by being recognized by 3 or more donors/different studies)”.
Consider 1800 (MDLFMRIFTI) [compound 1800], for which the Dominant result is listed as “Yes (more dominant epitopes are defined by being recognized by 3 or more donors/different studies)”.
For the substance 1698 (KPRQKRTAT) [compound 1698], the Dominant entry is “Yes (more dominant epitopes are defined by being recognized by 3 or more donors/different studies)”.

The same data set, now with this note: CD8RE megapool peptides (non-spike SARS-CoV-2 antigens); dominant epitope Yes/No; cited from earlier work.
Regarding 2904 (KLLEQWNLV) [compound 2904], the Dominant entry is on record as “Yes (more dominant epitopes are defined by being recognized by 3 or more donors/different studies)”.
Take 2924 (SPRWYFYYL) [compound 2924]: the Dominant entry is listed as “Yes (more dominant epitopes are defined by being recognized by 3 or more donors/different studies)”.
With 3003 (ASMPTTIAK) [compound 3003], the Dominant entry is listed as “Yes (more dominant epitopes are defined by being recognized by 3 or more donors/different studies)”.
With 2920 (YYRRATRRIR) [compound 2920], the Dominant result is reported as “Yes (more dominant epitopes are defined by being recognized by 3 or more donors/different studies)”.
For the substance 2997 (PTDNYITTY) [compound 2997], the Dominant entry is “Yes (more dominant epitopes are defined by being recognized by 3 or more donors/different studies)”.
For the substance 2985 (NLWNTFTRL) [compound 2985], the Dominant entry is reported as “Yes (more dominant epitopes are defined by being recognized by 3 or more donors/different studies)”.
Regarding 3001 (SAPPAQYEL) [compound 3001], the Dominant result is given as “Yes (more dominant epitopes are defined by being recognized by 3 or more donors/different studies)”.
As to 2937 (ASAFFGMSR) [compound 2937], the Dominant entry is “Yes (more dominant epitopes are defined by being recognized by 3 or more donors/different studies)”.
As for 3017 (VLAWLYAAV) [compound 3017], the Dominant entry is listed as “Yes (more dominant epitopes are defined by being recognized by 3 or more donors/different studies)”.
Take 2968 (VVYRGTTTY) [compound 2968]: the Dominant result was “Yes (more dominant epitopes are defined by being recognized by 3 or more donors/different studies)”.
For 3000 (YLATALLTL) [compound 3000], the Dominant entry is “Yes (more dominant epitopes are defined by being recognized by 3 or more donors/different studies)”.
As for 2959 (DTDFVNEFY) [compound 2959], the Dominant entry is “Yes (more dominant epitopes are defined by being recognized by 3 or more donors/different studies)”.
2944 (LPAADLDDF) [compound 2944]: the Dominant entry is reported as “Yes (more dominant epitopes are defined by being recognized by 3 or more donors/different studies)”.
2989 (GVAMPNLYK) [compound 2989]: the Dominant result is “Yes (more dominant epitopes are defined by being recognized by 3 or more donors/different studies)”.
Turning to 2911 (SELVIGAVIL) [compound 2911], the Dominant entry is “Yes (more dominant epitopes are defined by being recognized by 3 or more donors/different studies)”.
As to 3034 (VTDTPKGPK) [compound 3034], the Dominant result is “Yes (more dominant epitopes are defined by being recognized by 3 or more donors/different studies)”.
With 2952 (KLFDRYFKY) [compound 2952], the Dominant result is “Yes (more dominant epitopes are defined by being recognized by 3 or more donors/different studies)”.
Regarding 3007 (STFNVPMEK) [compound 3007], the Dominant result is “Yes (more dominant epitopes are defined by being recognized by 3 or more donors/different studies)”.
Take 2917 (NTASWFTAL) [compound 2917]: the Dominant entry was “Yes (more dominant epitopes are defined by being recognized by 3 or more donors/different studies)”.
For the substance 2978 (AIMTRCLAV) [compound 2978], the Dominant result is given as “Yes (more dominant epitopes are defined by being recognized by 3 or more donors/different studies)”.
Consider 2981 (SYATHSDKF) [compound 2981], for which the Dominant entry is recorded as “Yes (more dominant epitopes are defined by being recognized by 3 or more donors/different studies)”.
In the case of 3041 (VYFLQSINF) [compound 3041], the Dominant entry is reported as “Yes (more dominant epitopes are defined by being recognized by 3 or more donors/different studies)”.
For the substance 2919 (FPRGQGVPI) [compound 2919], the Dominant entry is given as “Yes (more dominant epitopes are defined by being recognized by 3 or more donors/different studies)”.

Staying with this data set, now noted: Nelde et al.; HLA-A*01:01 restricted; cited from earlier work.
TTDPSFLGRY [nsp3 819-828]: the “positive in donors tested” value is 83%.

Staying with this data set, now noted: SARS-CoV-2-derived CD8 epitopes; dominant = recognized by 3 or more donors/different studies; cited from earlier work.
Turning to 540 (GMEVTPSGTWLTY) [compound 540], the Dominant result is “Yes (more dominant epitopes are defined by being recognized by 3 or more donors/different studies)”.
In the case of 513 (NPANNAAIVL) [compound 513], the Dominant entry was “Yes (more dominant epitopes are defined by being recognized by 3 or more donors/different studies)”.
Consider 547 (ILLNKHIDA) [compound 547], for which the Dominant result was “Yes (more dominant epitopes are defined by being recognized by 3 or more donors/different studies)”.
Regarding 520 (LLLDRLNQL) [compound 520], the Dominant result is on record as “Yes (more dominant epitopes are defined by being recognized by 3 or more donors/different studies)”.

Staying with this data set, now noted: SARS-CoV-2 Ag S; T cell type recognizing the epitope; cited from earlier work.
As for 1435 (TYVPAQEKNFT) [compound 1435], the Restriction entry is reported as “CD8”.
Consider 1326 (VLTESNKKF) [compound 1326], for which the Restriction result is reported as “CD8”.
As for 1445 (IITTDNTFV) [compound 1445], the Restriction result is recorded as “CD8”.
On to 1448 (DSFKEELDKY) [compound 1448], for which the Restriction result is given as “CD8”.
1418 (RASANLAATK) [compound 1418]: the Restriction entry is on record as “CD8”.
For the substance 1374 (VFAQVKQIY) [compound 1374], the Restriction result is recorded as “CD8”.
With 1456 (LQELGKYEQY) [compound 1456], the Restriction result is “CD8”.
Regarding 1439 (VFVSNGTHW) [compound 1439], the Restriction entry is “CD8”.
1430 (GVVFLHVTY) [compound 1430]: the Restriction entry is “CD8”.
Regarding 1410 (AEVQIDRLI) [compound 1410], the Restriction result is recorded as “CD8”.
Turning to 1344 (YECDIPIGAGI) [compound 1344], the Restriction result is reported as “CD8”.
As for 1420 (RVDFCGKGY) [compound 1420], the Restriction entry is recorded as “CD8”.

Still in this data set, the particulars now being: T cell subset (CD4 or CD8) recognizing the SARS-CoV-2-derived epitope; cited from earlier work.
Turning to 699 (VVAIDYKHY) [compound 699], the Restriction entry is “CD8”.
As for 669 (YPQVNGLTSI) [compound 669], the Restriction result is listed as “CD8”.
With 540 (GMEVTPSGTWLTY) [compound 540], the Restriction entry is reported as “CD8”.
Take 517 (SSRGTSPAR) [compound 517]: the Restriction entry is reported as “CD8”.
Consider 530 (DYKHWPQIAQF) [compound 530], for which the Restriction result is given as “CD8”.
As for 614 (RTNVYLAVF) [compound 614], the Restriction entry was “CD8”.
Regarding 537 (SASAFFGMSR) [compound 537], the Restriction result is “CD8”.
611 (YENFNQHEV) [compound 611]: the Restriction entry is reported as “CD8”.
With 578 (EIKESVQTF) [compound 578], the Restriction result is recorded as “CD8”.
For 659 (HTTDPSFLGR) [compound 659], the Restriction result is on record as “CD8”.
For the substance 513 (NPANNAAIVL) [compound 513], the Restriction result is on record as “CD8”.
Turning to 638 (VVDYGARFY) [compound 638], the Restriction result is “CD8”.
With 522 (KSAAEASKK) [compound 522], the Restriction entry is “CD8”.
With 547 (ILLNKHIDA) [compound 547], the Restriction result is recorded as “CD8”.
On to 520 (LLLDRLNQL) [compound 520], for which the Restriction entry was “CD8”.
As to 548 (LLNKHIDAY) [compound 548], the Restriction entry was “CD8”.

Staying with this data set, now noted: T cell type (CD4 or CD8) recognizing the SARS-CoV-2 epitope; cited from earlier work.
In the case of 965 (FVVEVVDKY) [compound 965], the Restriction result was “CD8”.
With 975 (YAISAKNRAR) [compound 975], the Restriction result is on record as “CD8”.
On to 957 (FAVSKGFFK) [compound 957], for which the Restriction result is given as “CD8”.
Turning to 1040 (VVNARLRAK) [compound 1040], the Restriction entry is “CD8”.
On to 1054 (PFMIDVQQW) [compound 1054], for which the Restriction result was “CD8”.
On to 915 (GPKVKYLYF) [compound 915], for which the Restriction result is “CD8”.
For the substance 997 (LRKHFSMMI) [compound 997], the Restriction result is listed as “CD8”.
